Results on 2 substances are retold here after US20050137130A1, “Medical treatment” (priority 2001, published 2005).

This assay relates to Notch signalling in CHO-N2 (N27#11) cells expressing full length human Notch2. Briefly: CHO-N2 (N27) luciferase reporter assay, CHO-Delta antagonist assay. It counts as cell-based. Conditions: soluble protein, N27#11 reporter cells co-cultured with CHO-Delta cells overnight. An excerpt:
An adenovirus major late promoter TATA-box motif with BglII and HindIII cohesive ends was generated as follows:
This was cloned into plasmid pGL3-Basic (Promega) between the BgiII and HindIII sites to generate plasmid pGL3-AdTATA.
A TP1 promoter sequence (TP1; equivalent to 2 CBF1 repeats) with BamH1 and BglII cohesive ends was generated as follows:
This sequence was pentamerised by repeated insertion into a BglII site and the resulting TP1 pentamer (equivalent to 10 CBF1 repeats) was inserted into pGL3-AdTATA at the BglII site to generate plasmid pLOR91.
A cDNA clone spanning the complete coding sequence of the human Notch2 gene (see, eg GenBank Accession No AF315356) was constructed as follows. A 3′ cDNA fragment encoding the entire intracellular domain and a portion of the extracellular domain was isolated from a human placental cDNA library (OriGene Technologies Ltd., USA) using a PCR-based screening strategy. […]
CHO-Delta cells (as described above) were maintained in DMEM plus 10% (HI)FCS plus glutamine plus P/S plus 0.5 mg/ml G418. Just prior to use the cells were removed from a T80 flask using 0.02% EDTA solution (Sigma), spun down and resuspended in 10 ml DMEM plus 10%(HI)FCS plus glutamine plus P/S. 10 μl of cells were counted and the cell density was adjusted to 5.0×10^5 cells/ml with fresh DMEM plus 10%(HI)FCS plus glutamine plus P/S. […]
In general terms: A reporter such as luciferase makes a cellular process visible.

Turning to “hJagged1EGF1&2-IgG4Fc: human jagged1 sequence up to the end of EGF2 (leader, amino terminal, DSL, EGF1+2) fused to the Fc domain of human IgG4 (SEQ ID NO: 10)”, the “inhibition of Notch signalling from CHO-Delta cells” value is given as “substantially the same inhibition of Notch signalling”.

Turning to “hDelta1-IgG4Fc: fusion protein comprising the extracellular domain of human Delta1 fused to the Fc domain of human IgG4 (SEQ ID NO: 5)”, the “inhibition of Notch signalling from CHO-Delta cells” value is reported as “inhibition of Notch signalling”.
